# Measured values as given in patent US20240238242A1, “EGCG buccal tablet and use thereof” (priority 2023, published 2024).
# Like-named read-outs stand apart in the source and are kept apart here.
# Tested on: Novel enterovirus D68 (EV-D68)
# Assay type: cell-based
# Conditions: for CPE test (virus replication in cell wells) / CPE test (virus replication in the cell wells): wells 1-10; for average inactivation efficiency against virus / inactivation efficiency against the virus: EV-D68 virus; for average inactivation efficiency against virus: three experiments; for CPE test per cell well: first experiment; for inactivation efficiency against the virus: single experiment
smiles,measurement,setting,value
"O=C(O[C@@H]1Cc2c(O)cc(O)cc2O[C@@H]1c1cc(O)c(O)c(O)c1)c1cc(O)c(O)c(O)c1 [EGCG, Epigallocatechin gallate]",CPE test (virus replication in cell wells),"1 mM EGCG + virus, 1 minute, dilution factor 10^2, second experiment",+
same,CPE test (virus replication in cell wells),"1 mM EGCG + virus, 1 minute, dilution factor 10^2, third experiment",+
same,CPE test (virus replication in cell wells),"1 mM EGCG + virus, 1 minute, dilution factor 10^3, second experiment",+
same,CPE test (virus replication in cell wells),"1 mM EGCG + virus, 1 minute, dilution factor 10^3, third experiment",+
same,CPE test (virus replication in cell wells),"1 mM EGCG + virus, 1 minute, dilution factor 10^4, second experiment",+
same,CPE test (virus replication in cell wells),"1 mM EGCG + virus, 1 minute, dilution factor 10^4, third experiment",+
same,CPE test (virus replication in cell wells),"1 mM EGCG + virus, 1 minute, dilution factor 10^5, second experiment",+
same,CPE test (virus replication in cell wells),"1 mM EGCG + virus, 1 minute, dilution factor 10^5, third experiment",+
same,CPE test (virus replication in cell wells),"1 mM EGCG + virus, 1 minute, dilution factor 10^6, second experiment",+ and −
same,CPE test (virus replication in cell wells),"1 mM EGCG + virus, 1 minute, dilution factor 10^6, third experiment",+ and −
same,CPE test (virus replication in cell wells),"1 mM EGCG + virus, 1 minute, dilution factor 10^7, second experiment",− and +
same,CPE test (virus replication in cell wells),"1 mM EGCG + virus, 1 minute, dilution factor 10^7, third experiment",− and +
same,CPE test (virus replication in cell wells),"1 mM EGCG + virus, 1 minute, dilution factor 10^8, second experiment",−
same,CPE test (virus replication in cell wells),"1 mM EGCG + virus, 1 minute, dilution factor 10^8, third experiment",−
same,CPE test (virus replication in the cell wells),"1 mM EGCG + virus, co-incubated 5 minute, dilution factor 10^1, first experiment",+
same,CPE test (virus replication in the cell wells),"1 mM EGCG + virus, co-incubated 5 minute, dilution factor 10^1, second experiment",+
same,CPE test (virus replication in the cell wells),"1 mM EGCG + virus, co-incubated 5 minute, dilution factor 10^2, first experiment",+
same,CPE test (virus replication in the cell wells),"1 mM EGCG + virus, co-incubated 5 minute, dilution factor 10^2, second experiment",+
same,CPE test (virus replication in the cell wells),"1 mM EGCG + virus, co-incubated 5 minute, dilution factor 10^3, first experiment",+
same,CPE test (virus replication in the cell wells),"1 mM EGCG + virus, co-incubated 5 minute, dilution factor 10^3, second experiment",+
same,CPE test (virus replication in the cell wells),"1 mM EGCG + virus, co-incubated 5 minute, dilution factor 10^4, first experiment",+
same,CPE test (virus replication in the cell wells),"1 mM EGCG + virus, co-incubated 5 minute, dilution factor 10^4, second experiment",+
same,CPE test (virus replication in the cell wells),"1 mM EGCG + virus, co-incubated 5 minute, dilution factor 10^5, first experiment",+
same,CPE test (virus replication in the cell wells),"1 mM EGCG + virus, co-incubated 5 minute, dilution factor 10^5, second experiment",+
same,CPE test (virus replication in the cell wells),"1 mM EGCG + virus, co-incubated 5 minute, dilution factor 10^6, first experiment",+ and −
same,CPE test (virus replication in the cell wells),"1 mM EGCG + virus, co-incubated 5 minute, dilution factor 10^6, second experiment",+ and −
same,CPE test (virus replication in the cell wells),"1 mM EGCG + virus, co-incubated 5 minute, dilution factor 10^7, first experiment",−
same,CPE test (virus replication in the cell wells),"1 mM EGCG + virus, co-incubated 5 minute, dilution factor 10^7, second experiment",−
same,CPE test (virus replication in the cell wells),"1 mM EGCG + virus, co-incubated 5 minute, dilution factor 10^8, first experiment",−
same,CPE test (virus replication in the cell wells),"1 mM EGCG + virus, co-incubated 5 minute, dilution factor 10^8, second experiment",−
same,average inactivation efficiency against virus,"1 mM EGCG, 1 minute",41.23%
same,average inactivation efficiency against virus,"1 mM EGCG, 5 minutes",35.78%
same,CPE test per cell well,"5 mM EGCG + EV-D68 virus, 1 minute, dilution factor 10^2, wells 1-10",+
same,CPE test per cell well,"5 mM EGCG + EV-D68 virus, 1 minute, dilution factor 10^3, wells 1-10",+
same,CPE test per cell well,"5 mM EGCG + EV-D68 virus, 1 minute, dilution factor 10^4, wells 1-10",+
same,CPE test per cell well,"5 mM EGCG + EV-D68 virus, 1 minute, dilution factor 10^5, wells 1-10",+
same,CPE test per cell well,"5 mM EGCG + EV-D68 virus, 1 minute, dilution factor 10^6, wells 1-10",− and +
same,CPE test per cell well,"5 mM EGCG + EV-D68 virus, 1 minute, dilution factor 10^7, wells 1-10",− and +
same,CPE test per cell well,"5 mM EGCG + EV-D68 virus, 1 minute, dilution factor 10^8, wells 1-10",−
same,CPE test (virus replication in cell wells),"5 mM EGCG + EV-D68 virus, co-incubated 5 minute, third experiment, dilution factor 10^2",+
same,CPE test (virus replication in cell wells),"5 mM EGCG + EV-D68 virus, co-incubated 5 minute, third experiment, dilution factor 10^3",+
same,CPE test (virus replication in cell wells),"5 mM EGCG + EV-D68 virus, co-incubated 5 minute, third experiment, dilution factor 10^4",+
same,CPE test (virus replication in cell wells),"5 mM EGCG + EV-D68 virus, co-incubated 5 minute, third experiment, dilution factor 10^5",+
same,CPE test (virus replication in cell wells),"5 mM EGCG + EV-D68 virus, co-incubated 5 minute, third experiment, dilution factor 10^6",− and +
same,CPE test (virus replication in cell wells),"5 mM EGCG + EV-D68 virus, co-incubated 5 minute, third experiment, dilution factor 10^7",−
same,CPE test (virus replication in cell wells),"5 mM EGCG + EV-D68 virus, co-incubated 5 minute, third experiment, dilution factor 10^8",−
same,CPE test (virus replication in cell wells),"5 mM EGCG + virus, 1 minute, dilution factor 10^1, third experiment",+
same,CPE test (virus replication in cell wells),"5 mM EGCG + virus, 1 minute, dilution factor 10^2, second experiment",+
same,CPE test (virus replication in cell wells),"5 mM EGCG + virus, 1 minute, dilution factor 10^2, third experiment",+
same,CPE test (virus replication in cell wells),"5 mM EGCG + virus, 1 minute, dilution factor 10^3, second experiment",+
same,CPE test (virus replication in cell wells),"5 mM EGCG + virus, 1 minute, dilution factor 10^3, third experiment",+
same,CPE test (virus replication in cell wells),"5 mM EGCG + virus, 1 minute, dilution factor 10^4, second experiment",+
same,CPE test (virus replication in cell wells),"5 mM EGCG + virus, 1 minute, dilution factor 10^4, third experiment",+
same,CPE test (virus replication in cell wells),"5 mM EGCG + virus, 1 minute, dilution factor 10^5, second experiment",+
same,CPE test (virus replication in cell wells),"5 mM EGCG + virus, 1 minute, dilution factor 10^5, third experiment",+
same,CPE test (virus replication in cell wells),"5 mM EGCG + virus, 1 minute, dilution factor 10^6, second experiment",+ and −
same,CPE test (virus replication in cell wells),"5 mM EGCG + virus, 1 minute, dilution factor 10^6, third experiment",+ and −
same,CPE test (virus replication in cell wells),"5 mM EGCG + virus, 1 minute, dilution factor 10^7, second experiment",−
same,CPE test (virus replication in cell wells),"5 mM EGCG + virus, 1 minute, dilution factor 10^7, third experiment",− and +
same,CPE test (virus replication in cell wells),"5 mM EGCG + virus, 1 minute, dilution factor 10^8, second experiment",−
same,CPE test (virus replication in cell wells),"5 mM EGCG + virus, 1 minute, dilution factor 10^8, third experiment",−
same,CPE test (virus replication in the cell wells),"5 mM EGCG + virus, co-incubated 5 minute, dilution factor 10^2, first experiment",+
same,CPE test (virus replication in the cell wells),"5 mM EGCG + virus, co-incubated 5 minute, dilution factor 10^2, second experiment",+
same,CPE test (virus replication in the cell wells),"5 mM EGCG + virus, co-incubated 5 minute, dilution factor 10^3, first experiment",+
same,CPE test (virus replication in the cell wells),"5 mM EGCG + virus, co-incubated 5 minute, dilution factor 10^3, second experiment",+
same,CPE test (virus replication in the cell wells),"5 mM EGCG + virus, co-incubated 5 minute, dilution factor 10^4, first experiment",+
same,CPE test (virus replication in the cell wells),"5 mM EGCG + virus, co-incubated 5 minute, dilution factor 10^4, second experiment",+
same,CPE test (virus replication in the cell wells),"5 mM EGCG + virus, co-incubated 5 minute, dilution factor 10^5, first experiment",+
same,CPE test (virus replication in the cell wells),"5 mM EGCG + virus, co-incubated 5 minute, dilution factor 10^5, second experiment",+
same,CPE test (virus replication in the cell wells),"5 mM EGCG + virus, co-incubated 5 minute, dilution factor 10^6, first experiment",− and +
same,CPE test (virus replication in the cell wells),"5 mM EGCG + virus, co-incubated 5 minute, dilution factor 10^6, second experiment",+ and −
same,CPE test (virus replication in the cell wells),"5 mM EGCG + virus, co-incubated 5 minute, dilution factor 10^7, first experiment",−
same,CPE test (virus replication in the cell wells),"5 mM EGCG + virus, co-incubated 5 minute, dilution factor 10^7, second experiment",−
same,CPE test (virus replication in the cell wells),"5 mM EGCG + virus, co-incubated 5 minute, dilution factor 10^8, first experiment",−
same,CPE test (virus replication in the cell wells),"5 mM EGCG + virus, co-incubated 5 minute, dilution factor 10^8, second experiment",−
same,inactivation efficiency against the virus,"5 mM EGCG, 1 minute",80.05%
same,average inactivation efficiency against virus,"5 mM EGCG, 1 minute",66.10%
same,inactivation efficiency against the virus,"5 mM EGCG, 5 minutes",74.88%
same,average inactivation efficiency against virus,"5 mM EGCG, 5 minutes",66.55%
